# Measurements taken from patent US5798381A, “Biologically active bistramides, process for their production and their applications in therapy” (Institut Francais de Recherche Scientifique pour le …, priority 1993, dated 1998).
# Entries after “also recorded” stand apart in the source; their conditions may differ. Read-outs that look alike come from different tables or passages of the source.
# What was measured:
# mice = experiment: Acute toxicity (LD50), intravenous injection in mice; type: in vivo; conditions: statement in words
# Experimental: The LD50 of these bistramides is in fact of the order of 1.7 mg/kg (measured in mice, after injection of the product by intravenous route as a single dose).
# The "LD50 " of the products of the invention has been measured for mice after injection of the products by intravenous route.
# [1] = system: NSCLC solid tumours (xenograft); type: in vivo, nude mouse
# Experimental: The anti-tumoural activity of the products of the invention was studied against solid tumours of NSCLC type grafted onto a nude mouse (D. Riou, C. Roussakis, J. F. Biard, J. F. Verbist: "Comparative study of antitumor activity of bistramides A, D and K against non-small cell bronchopulmonary carcinoma", Anticancer Research, 1993, 13, 2321-2334). Each mouse received 0.2 ml of a cell solution obtained by the mechanical dispersion of about 1 g of excised mouse tumour in 4.8 ml of a sterile saline solution. The sub-cutaneous grafted tumours were measured over their long length L and their short length 1. The tumoural volume was evaluated according to the formula Vt=L×1^2 /2. The tumoural growth on day d was calculated by the formula Vtd /Vtd0 for each mouse, Vtd0 being the tumoural volume at the start of treatment.
# The curve "------.circle-solid.------ " relates to the control experiment, the curves "--- .diamond-solid.---", "-- .quadrature.--" and "-- .box-solid.--" to experiments with 10, 20 and 5 mg/kg of bistramide D respectively and the curve "----*----" to an experiment with 10 mg/kg of bistramide K. Each point represents the average tumoural growth for 6 mice.
# In these experiments, bistramide K is injected at the rate of 10 mg/kg by intraperitoneal route for 16 days and bistramide D at the rate of 5 mg/kg by intraperitoneal route every day for 16 days; at 10 mg/kg by intravenous route on days 1, 5, 9, 14, and at 20 mg/kg by intravenous route on days 1, 5, 9, 14.
# HT 29 = experiment: Cytotoxicity, 50% inhibition of cell growth, HT 29; type: cell-based; conditions: Homo sapiens
# Experimental: (§1) The cytoxicity results are recorded hereafter as the IC50 in μg/ml (concentration corresponding to a 50% inhibition of cell growth) on 6 tumoural lines namely KB, P388, P388/dox (resistant to doxorubicin), B16 and H429 and NSCLC-N6, which are human cells of non-small cell bronchopulmonary carcinoma type.
# (§2) The determinations were carried out according to the protocol given in Cancer Chemother. Pharmacol. (1991) 28:283-292 by Roussakis et al.
# NSCLC.N6-L16 = experiment: Cytotoxicity, 50% inhibition of cell growth, NSCLC-N6; type: cell-based; conditions: Homo sapiens
# Experimental: as §1, §2
# KB = experiment: Cytotoxicity, 50% inhibition of cell growth, KB; type: cell-based; conditions: Homo sapiens, read-out: IC50 (50% inhibition of cell growth)
# Experimental: as §1, §2
# B16 = experiment: Cytotoxicity, 50% inhibition of cell growth, B16; type: cell-based
# Experimental: as §1, §2
# P388/dox (p388r) = experiment: Cytotoxicity, 50% inhibition of cell growth, P388/dox (resistant to doxorubicin); type: cell-based; conditions: Mus musculus
# Experimental: as §1, §2
# P388 (p388s) = experiment: Cytotoxicity, 50% inhibition of cell growth, P388; type: cell-based; conditions: Mus musculus, P388/S, read-out: IC50 (50% inhibition of cell growth)
# Experimental: as §1, §2
compound,measurement,setting,value
C/C=C/C(=O)CC1CCC(C)C(CC(=O)NCC(O)C(C)C(=O)NCCCC2OC3(CCCC(CCC(C)/C=C(\C)C(C)O)O3)CCC2C)O1 (stereo not drawn) [Bistramide A],toxicity in vivo,mice,high toxicity; also recorded: toxic
same,toxicity in vivo,mice; listed as A bistramide,acute toxicity
same,toxicity under the conditions of the xenograft test,"[1]; mouse, in vivo",too toxic for an anti-tumoural effect to be observed
CCCC(=O)CC1CCC(C)C(CC(=O)NCC(O)C(C)C(=O)NCCCC2OC3(CCCC(CCC(C)C=C(C)C(C)O)O3)CCC2C)O1 (stereo not drawn) [Bistramide B],toxicity in vivo,mice,high toxicity
C/C=C/C(=O)CC1CCC(C)C(CC(=O)NCC(O)C(C)C(=O)NCCCC2OC3(CCCC(CCC(C)C=C(C)C(C)=O)O3)CCC2C)O1 (stereo not drawn) [Bistramide C],toxicity in vivo,mice,high toxicity
C/C=C/C(O)C/C=C/CC(C)C(O)CC(=O)NCC(O)C(C)C(=O)NCCCC1OC2(CCCC(CCC(C)/C=C(\C)C(C)O)O2)CCC1C (stereo not drawn) [Bistramide K],IC50,"HT 29; HT 29, read-out: IC50 (50% inhibition of cell growth)",5.6 µg/mL
same,IC50,"NSCLC.N6-L16; NSCLC.N6-L16, read-out: IC50 (50% inhibition of cell growth)",3.23 µg/mL
same,IC50,KB,> 10 µg/mL
same,IC50,"B16; Mus musculus, B16; read-out: IC50 (50% inhibition of cell growth)",1.9 µg/mL
same,tumoural growth relative to controls (100%),"[1]; 10 mg/kg, IP, for 16 days, at the end of 30 days",49%
same,IC50,P388/dox (p388r),> 10 µg/mL
same,IC50,P388 (p388s); p388s,0.57 µg/mL
C/C=C\C(=O)CC1CCC(C)C(CC(=O)NCC(O)C(C)C(=O)NCCCC2OC3(CCCC(CCC(C)/C=C(\C)C(C)O)O3)CCC2C)O1 (stereo not drawn) [Bistramide L],IC50,"HT 29; HT-29, read-out: IC50 (50% inhibition of cell growth)",0.29 µg/mL
same,IC50,"NSCLC.N6-L16; NSCLC-N6, read-out: IC50 (50% inhibition of cell growth)",0.12 µg/mL
same,IC50,KB,0.72 µg/mL
same,IC50,"B16; Mus musculus, B16, read-out: IC50 (50% inhibition of cell growth)",2.4 µg/mL
same,IC50,P388/dox (p388r),0.12 µg/mL
same,IC50,P388 (p388s),0.48 µg/mL
